ChEMBL document CHEMBL2040848, “Synthesis and bioactivity evaluation of rhodanine derivatives as potential anti-bacterial agents” (2012)
Values after ≈ are worked out from the molar mass of the structure shown.

Key:
Format in all cases: functional
Staphylococcus aureus [1] = assay: Antibacterial activity against Staphylococcus aureus KCTC 4220 after 24 hrs by two-fold serial dilution method; details: KCTC 4220, 24 h
Staphylococcus aureus [2] = assay: Antibacterial activity against methicillin-resistant Staphylococcus aureus CCARM 3506 after 24 hrs by two-fold serial dilution method; details: CCARM 3506, 24 h
Escherichia coli = assay: Antibacterial activity against Escherichia coli 1356 after 24 hrs by two-fold serial dilution method; details: Escherichia coli, 1356, 24 h
Staphylococcus aureus [3] = assay: Antibacterial activity against quinolone-resistant Staphylococcus aureus CCARM 3519 after 24 hrs by two-fold serial dilution method; details: CCARM 3519, 24 h
Staphylococcus aureus [4] = assay: Antibacterial activity against Staphylococcus aureus KCTC 503 after 24 hrs by two-fold serial dilution method; details: KCTC 503, 24 h
Staphylococcus aureus [5] = assay: Antibacterial activity against quinolone-resistant Staphylococcus aureus CCARM 3505 after 24 hrs by two-fold serial dilution method; details: CCARM 3505, 24 h
Staphylococcus aureus [6] = assay: Antibacterial activity against Staphylococcus aureus KCTC 209 after 24 hrs by two-fold serial dilution method; details: KCTC 209, 24 h
Staphylococcus aureus [7] = assay: Antibacterial activity against methicillin-resistant Staphylococcus aureus CCARM 3167 after 24 hrs by two-fold serial dilution method; details: CCARM 3167, 24 h

Row | Compound | MIC (Staphylococcus aureus [1]) [µg/mL] | MIC (Staphylococcus aureus [2]) [µg/mL] | MIC (Escherichia coli) [µg/mL] | MIC (Staphylococcus aureus [3]) [µg/mL] | MIC (Staphylococcus aureus [4]) [µg/mL] | MIC (Staphylococcus aureus [5]) [µg/mL] | MIC (Staphylococcus aureus [6]) [µg/mL] | MIC (Staphylococcus aureus [7]) [µg/mL]
1 | O=C(COc1ccc(/C=C2\SC(=S)N([C@@H](Cc3ccc(O)cc3)C(=O)O)C2=O)cc1)c1cccc(Br)c1 | 8 (≈ 13.4 µM) | 8 (≈ 13.4 µM) | > 64 | 8 (≈ 13.4 µM) | 8 (≈ 13.4 µM) | 8 (≈ 13.4 µM) | 8 (≈ 13.4 µM) | 8 (≈ 13.4 µM)
2 | COc1ccccc1C(=O)COc1ccc(/C=C2\SC(=S)N([C@@H](Cc3ccc(O)cc3)C(=O)O)C2=O)cc1 | 32 (≈ 58.2 µM) | 8 (≈ 14.6 µM) | > 64 | 8 (≈ 14.6 µM) | 8 (≈ 14.6 µM) | 8 (≈ 14.6 µM) | 8 (≈ 14.6 µM) | 8 (≈ 14.6 µM)
3 | O=C(COc1ccc(/C=C2\SC(=S)N([C@@H](Cc3ccccc3)C(=O)O)C2=O)cc1)c1ccc(Cl)cc1Cl | 8 (≈ 14 µM) | 8 (≈ 14 µM) | > 64 | 8 (≈ 14 µM) | 8 (≈ 14 µM) | 8 (≈ 14 µM) | 8 (≈ 14 µM) | 8 (≈ 14 µM)
4 | Cc1onc(-c2ccccc2)c1C(=O)N[C@@H]1C(=O)N2[C@@H]1SC(C)(C)[C@@H]2C(=O)O [OXACILLIN] | 1 (≈ 2.49 µM) | > 64 | > 64 | 1 (≈ 2.49 µM) | 1 (≈ 2.49 µM) | 1 (≈ 2.49 µM) | 1 (≈ 2.49 µM) | > 64
5 | O=C(COc1ccc(/C=C2\SC(=S)N([C@@H](Cc3ccccc3)C(=O)O)C2=O)cc1)c1cccc(Cl)c1 | 8 (≈ 14.9 µM) | 4 (≈ 7.43 µM) | > 64 | 4 (≈ 7.43 µM) | 4 (≈ 7.43 µM) | 4 (≈ 7.43 µM) | 4 (≈ 7.43 µM) | 4 (≈ 7.43 µM)
6 | O=C(COc1ccc(/C=C2\SC(=S)N([C@@H](Cc3ccc(O)cc3)C(=O)O)C2=O)cc1)c1ccccc1F | 32 (≈ 59.5 µM) | 16 (≈ 29.8 µM) | > 64 | 16 (≈ 29.8 µM) | 16 (≈ 29.8 µM) | 16 (≈ 29.8 µM) | 8 (≈ 14.9 µM) | 16 (≈ 29.8 µM)
7 | O=C(COc1ccc(/C=C2\SC(=S)N([C@@H](Cc3c[nH]c4ccccc34)C(=O)O)C2=O)cc1)c1ccccc1F | 8 (≈ 14.3 µM) | 8 (≈ 14.3 µM) | > 64 | 8 (≈ 14.3 µM) | 8 (≈ 14.3 µM) | 8 (≈ 14.3 µM) | 8 (≈ 14.3 µM) | 8 (≈ 14.3 µM)
8 | Cc1ccc(C(=O)COc2ccc(/C=C3\SC(=S)N([C@@H](Cc4ccccc4)C(=O)O)C3=O)cc2)cc1 | 8 (≈ 15.5 µM) | 8 (≈ 15.5 µM) | > 64 | 8 (≈ 15.5 µM) | 8 (≈ 15.5 µM) | 4 (≈ 7.73 µM) | 8 (≈ 15.5 µM) | 4 (≈ 7.73 µM)
9 | COc1cccc(C(=O)COc2ccc(/C=C3\SC(=S)N([C@@H](Cc4ccccc4)C(=O)O)C3=O)cc2)c1 | 8 (≈ 15 µM) | 8 (≈ 15 µM) | > 64 | 8 (≈ 15 µM) | 8 (≈ 15 µM) | 8 (≈ 15 µM) | 8 (≈ 15 µM) | 8 (≈ 15 µM)
10 | CCn1cc(C(=O)O)c(=O)c2cc(F)c(N3CCNCC3)cc21 [NORFLOXACIN] | 2 (≈ 6.26 µM) | 4 (≈ 12.5 µM) | 16 (≈ 50.1 µM) | > 64 | 2 (≈ 6.26 µM) | > 64 | 2 (≈ 6.26 µM) | 8 (≈ 25.1 µM)
11 | O=C(COc1ccc(/C=C2\SC(=S)N([C@@H](Cc3ccccc3)C(=O)O)C2=O)cc1)c1ccc(Cl)cc1 | 4 (≈ 7.43 µM) | 4 (≈ 7.43 µM) | > 64 | 4 (≈ 7.43 µM) | 8 (≈ 14.9 µM) | 4 (≈ 7.43 µM) | 4 (≈ 7.43 µM) | 4 (≈ 7.43 µM)
12 | O=C(COc1ccc(/C=C2\SC(=S)N([C@@H](Cc3ccc(O)cc3)C(=O)O)C2=O)cc1)c1ccc(F)cc1 | 8 (≈ 14.9 µM) | 8 (≈ 14.9 µM) | > 64 | 8 (≈ 14.9 µM) | 8 (≈ 14.9 µM) | 8 (≈ 14.9 µM) | 8 (≈ 14.9 µM) | 8 (≈ 14.9 µM)
13 | COc1cccc(C(=O)COc2ccc(/C=C3\SC(=S)N([C@@H](Cc4c[nH]c5ccccc45)C(=O)O)C3=O)cc2)c1 | 8 (≈ 14 µM) | 8 (≈ 14 µM) | > 64 | 8 (≈ 14 µM) | 8 (≈ 14 µM) | 8 (≈ 14 µM) | 8 (≈ 14 µM) | 8 (≈ 14 µM)
14 | Cc1ccc(C(=O)COc2ccc(/C=C3\SC(=S)N([C@@H](Cc4ccc(O)cc4)C(=O)O)C3=O)cc2)cc1 | 32 (≈ 60 µM) | 16 (≈ 30 µM) | > 64 | 16 (≈ 30 µM) | 8 (≈ 15 µM) | 16 (≈ 30 µM) | 4 (≈ 7.5 µM) | 16 (≈ 30 µM)
15 | O=C(COc1ccc(/C=C2\SC(=S)N([C@@H](Cc3ccc(O)cc3)C(=O)O)C2=O)cc1)c1ccccc1Cl | 16 (≈ 28.9 µM) | 16 (≈ 28.9 µM) | > 64 | 16 (≈ 28.9 µM) | 8 (≈ 14.4 µM) | 8 (≈ 14.4 µM) | 16 (≈ 28.9 µM) | 8 (≈ 14.4 µM)
16 | O=C(COc1ccc(/C=C2\SC(=S)N([C@@H](Cc3c[nH]c4ccccc34)C(=O)O)C2=O)cc1)c1ccccc1Cl | 8 (≈ 13.9 µM) | 8 (≈ 13.9 µM) | > 64 | 8 (≈ 13.9 µM) | 4 (≈ 6.93 µM) | 8 (≈ 13.9 µM) | 4 (≈ 6.93 µM) | 8 (≈ 13.9 µM)

Row | Compound | MIC (Staphylococcus aureus [1]) [µg/mL] | MIC (Staphylococcus aureus [2]) [µg/mL] | MIC (Escherichia coli) [µg/mL] | MIC (Staphylococcus aureus [3]) [µg/mL] | MIC (Staphylococcus aureus [4]) [µg/mL] | MIC (Staphylococcus aureus [5]) [µg/mL] | MIC (Staphylococcus aureus [6]) [µg/mL] | MIC (Staphylococcus aureus [7]) [µg/mL]
17 | O=C(COc1ccc(/C=C2\SC(=S)N([C@@H](Cc3ccc(O)cc3)C(=O)O)C2=O)cc1)c1ccc(Cl)cc1 | 16 (≈ 28.9 µM) | 16 (≈ 28.9 µM) | > 64 | 16 (≈ 28.9 µM) | 8 (≈ 14.4 µM) | 8 (≈ 14.4 µM) | 8 (≈ 14.4 µM) | 8 (≈ 14.4 µM)
18 | O=C(COc1ccc(/C=C2\SC(=S)N([C@@H](Cc3ccc(O)cc3)C(=O)O)C2=O)cc1)c1ccc(Cl)cc1Cl | 8 (≈ 13.6 µM) | 8 (≈ 13.6 µM) | > 64 | 8 (≈ 13.6 µM) | 4 (≈ 6.8 µM) | 8 (≈ 13.6 µM) | 4 (≈ 6.8 µM) | 8 (≈ 13.6 µM)
19 | COc1ccccc1C(=O)COc1ccc(/C=C2\SC(=S)N([C@@H](Cc3c[nH]c4ccccc34)C(=O)O)C2=O)cc1 | 8 (≈ 14 µM) | 8 (≈ 14 µM) | > 64 | 8 (≈ 14 µM) | 8 (≈ 14 µM) | 8 (≈ 14 µM) | 8 (≈ 14 µM) | 8 (≈ 14 µM)
20 | O=C(COc1ccc(/C=C2\SC(=S)N([C@@H](Cc3ccccc3)C(=O)O)C2=O)cc1)c1ccccc1Cl | 8 (≈ 14.9 µM) | 4 (≈ 7.43 µM) | > 64 | 4 (≈ 7.43 µM) | 8 (≈ 14.9 µM) | 4 (≈ 7.43 µM) | 8 (≈ 14.9 µM) | 4 (≈ 7.43 µM)
21 | O=C(O)CN1C(=O)C(=Cc2ccc(/C=C/C(=O)c3ccc(Cl)cc3Cl)cc2)SC1=S | 2 (≈ 4.18 µM) | 2 (≈ 4.18 µM) | > 64 | 2 (≈ 4.18 µM) | 2 (≈ 4.18 µM) | 2 (≈ 4.18 µM) | 2 (≈ 4.18 µM) | 2 (≈ 4.18 µM)
22 | O=C(COc1ccc(/C=C2\SC(=S)N([C@@H](Cc3ccc(O)cc3)C(=O)O)C2=O)cc1)c1ccc(Br)cc1 | 8 (≈ 13.4 µM) | 8 (≈ 13.4 µM) | > 64 | 8 (≈ 13.4 µM) | 4 (≈ 6.68 µM) | 8 (≈ 13.4 µM) | 4 (≈ 6.68 µM) | 8 (≈ 13.4 µM)
23 | O=C(COc1ccc(/C=C2\SC(=S)N([C@@H](Cc3ccc(O)cc3)C(=O)O)C2=O)cc1)c1cccc(Cl)c1 | 8 (≈ 14.4 µM) | 8 (≈ 14.4 µM) | > 64 | 8 (≈ 14.4 µM) | 8 (≈ 14.4 µM) | 8 (≈ 14.4 µM) | 8 (≈ 14.4 µM) | 8 (≈ 14.4 µM)
24 | O=C(COc1ccc(/C=C2\SC(=S)N([C@@H](Cc3ccccc3)C(=O)O)C2=O)cc1)c1ccc(Br)cc1 | 8 (≈ 13.7 µM) | 8 (≈ 13.7 µM) | > 64 | 8 (≈ 13.7 µM) | 8 (≈ 13.7 µM) | 4 (≈ 6.87 µM) | 8 (≈ 13.7 µM) | 4 (≈ 6.87 µM)
25 | O=C(COc1ccc(/C=C2\SC(=S)N([C@@H](Cc3c[nH]c4ccccc34)C(=O)O)C2=O)cc1)c1ccc(F)cc1 | 4 (≈ 7.13 µM) | 4 (≈ 7.13 µM) | > 64 | 4 (≈ 7.13 µM) | 4 (≈ 7.13 µM) | 4 (≈ 7.13 µM) | 4 (≈ 7.13 µM) | 4 (≈ 7.13 µM)
26 | O=C(COc1ccc(/C=C2\SC(=S)N([C@@H](Cc3c[nH]c4ccccc34)C(=O)O)C2=O)cc1)c1ccc(Cl)cc1Cl | 8 (≈ 13.1 µM) | 8 (≈ 13.1 µM) | > 64 | 8 (≈ 13.1 µM) | 8 (≈ 13.1 µM) | 4 (≈ 6.54 µM) | 4 (≈ 6.54 µM) | 4 (≈ 6.54 µM)
27 | Cc1ccc(C(=O)COc2ccc(/C=C3\SC(=S)N([C@@H](Cc4c[nH]c5ccccc45)C(=O)O)C3=O)cc2)cc1 | 8 (≈ 14.4 µM) | 8 (≈ 14.4 µM) | > 64 | 8 (≈ 14.4 µM) | 4 (≈ 7.19 µM) | 4 (≈ 7.19 µM) | 4 (≈ 7.19 µM) | 4 (≈ 7.19 µM)
28 | O=C(COc1ccc(/C=C2\SC(=S)N([C@@H](Cc3ccccc3)C(=O)O)C2=O)cc1)c1ccccc1 | 8 (≈ 15.9 µM) | 4 (≈ 7.94 µM) | > 64 | 4 (≈ 7.94 µM) | 8 (≈ 15.9 µM) | 8 (≈ 15.9 µM) | 4 (≈ 7.94 µM) | 8 (≈ 15.9 µM)
29 | O=C(COc1ccc(/C=C2\SC(=S)N([C@@H](Cc3ccccc3)C(=O)O)C2=O)cc1)c1ccccc1F | 8 (≈ 15.3 µM) | 4 (≈ 7.67 µM) | > 64 | 4 (≈ 7.67 µM) | 8 (≈ 15.3 µM) | 4 (≈ 7.67 µM) | 4 (≈ 7.67 µM) | 4 (≈ 7.67 µM)
30 | O=C(COc1ccc(/C=C2\SC(=S)N([C@@H](Cc3ccccc3)C(=O)O)C2=O)cc1)c1cccc(Br)c1 | 4 (≈ 6.87 µM) | 4 (≈ 6.87 µM) | > 64 | 4 (≈ 6.87 µM) | 4 (≈ 6.87 µM) | 4 (≈ 6.87 µM) | 4 (≈ 6.87 µM) | 4 (≈ 6.87 µM)
31 | O=C(COc1ccc(/C=C2\SC(=S)N([C@@H](Cc3c[nH]c4ccccc34)C(=O)O)C2=O)cc1)c1ccccc1Br | 8 (≈ 12.9 µM) | 8 (≈ 12.9 µM) | > 64 | 8 (≈ 12.9 µM) | 4 (≈ 6.44 µM) | 4 (≈ 6.44 µM) | 4 (≈ 6.44 µM) | 4 (≈ 6.44 µM)
